Assay: xn = mol fraction of the nth substance listed
Settings: 101 kPa, Liquid; for viscosity: Falling or rolling sphere viscometry; for mass density: Vibrating tube method

CCCC[NH3+].O=[N+]([O-])[O-] [n-butylammonium nitrate] + CCCO
Settings | mass density, 293.15 K [kg/m3] | mass density, 298.15 K [kg/m3] | mass density, 303.15 K [kg/m3] | mass density, 308.15 K [kg/m3] | mass density, 313.15 K [kg/m3] | viscosity, 293.15 K [mPa·s] | viscosity, 298.15 K [mPa·s] | viscosity, 303.15 K [mPa·s] | viscosity, 308.15 K [mPa·s] | viscosity, 313.15 K [mPa·s]
x1 = 0.0999 | 855.12 | 851.36 | 847.56 | 843.75 | 839.91 | 4.091 | 3.599 | 3.182 | 2.824 | 2.516
x1 = 0.2004 | 898.27 | 894.64 | 890.99 | 887.32 | 883.65 | 6.691 | 5.828 | 5.108 | 4.503 | 3.989
x1 = 0.2994 | 935.27 | 931.74 | 928.19 | 924.64 | 921.09 | 10.45 | 8.998 | 7.81 | 6.822 | 6.009
x1 = 0.4007 | 968.52 | 965.08 | 961.63 | 958.18 | 954.74 | 16.54 | 14.11 | 12.11 | 10.49 | 9.207
x1 = 0.4995 | 997.32 | 993.96 | 990.59 | 987.23 | 983.88 | 22.52 | 19.08 | 16.29 | 14.05 | 12.19
x1 = 0.6495 | 1035.44 | 1032.16 | 1028.88 | 1025.62 | 1022.36 | 38.05 | 31.62 | 26.59 | 22.59 | 19.39
x1 = 0.7978 | 1067.64 | 1064.42 | 1061.21 | 1058.02 | 1054.86 | 61.01 | 49.83 | 41.2 | 34.54 | 29.21
x1 = 0.9008 | 1087.69 | 1084.51 | 1081.34 | 1078.19 | 1075.07 | 83.36 | 67.14 | 55.16 | 46.11 | 40.09
x1 = 1 | 1104.68 | 1101.52 | 1098.38 | 1095.26 | 1092.17 | 111.35 | 89.95 | 73.04 | 60.25 | 50.12

CCCC[NH3+].O=[N+]([O-])[O-] [n-butylammonium nitrate] + CCCCO
Settings | mass density, 293.15 K [kg/m3] | mass density, 298.15 K [kg/m3] | mass density, 303.15 K [kg/m3] | mass density, 308.15 K [kg/m3] | mass density, 313.15 K [kg/m3] | viscosity, 293.15 K [mPa·s] | viscosity, 298.15 K [mPa·s] | viscosity, 303.15 K [mPa·s] | viscosity, 308.15 K [mPa·s] | viscosity, 313.15 K [mPa·s]
x1 = 0.1004 | 851.35 | 847.7 | 844.02 | 840.32 | 836.6 | 5.242 | 4.554 | 3.985 | 3.506 | 3.099
x1 = 0.1999 | 888.16 | 884.59 | 881 | 877.4 | 873.79 | – | 6.852 | 5.961 | 5.217 | 4.592
x1 = 0.2993 | 922.05 | 918.6 | 915.12 | 911.54 | 908.03 | 11.36 | 9.747 | 8.447 | 7.302 | 6.344
x1 = 0.3992 | 953.58 | 950.14 | 946.7 | 943.25 | 939.81 | 17.51 | 14.95 | 12.76 | 11.03 | 9.601
x1 = 0.4955 | 982.07 | 978.69 | 975.31 | 971.93 | 968.56 | 24.22 | 20.34 | 17.34 | 14.86 | 12.88
x1 = 0.6508 | 1024.4 | 1021.11 | 1017.81 | 1014.53 | 1011.26 | 38.67 | 31.95 | 26.79 | 22.66 | 19.51
x1 = 0.801 | 1061.11 | 1057.88 | 1054.67 | 1051.47 | 1048.29 | 60.58 | 49.4 | 40.82 | 34.2 | 28.96
x1 = 0.8998 | 1083.71 | 1080.52 | 1077.34 | 1074.19 | 1071.05 | 83.12 | 68.14 | 56.15 | 46.69 | 39.11
x1 = 1 | 1104.68 | 1101.52 | 1098.38 | 1095.26 | 1092.17 | 111.35 | 89.95 | 73.04 | 60.25 | 50.12

— the NIST ThermoML archive (doi:10.1016/j.jct.2012.10.008)
